Assay results as given in patent EP4603105A1, “PHARMACEUTICAL COMPOSITION CONTAINING CYCLIC COMPOUND HAVING SELECTIVE KRAS INHIBITORY EFFECT AGAINST HRAS AND NRAS” (CHUGAI SEIYAKU KABUSHIKI KAISHA, priority 2022, dated 2024).

What was measured:
[1] = biological target: GDP-bound NRAS wild-type protein (Homo sapiens, UniProt P01111); assay: Binding to NRAS by surface plasmon resonance (SPR), KD and KD ratio to KRAS; settings: ratio of KD for GDP-bound NRAS wild-type protein to KD for KRAS
How it was run: (§1)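 Compound binding is evaluated by SPR single-cycle kinetics, with concentrations added intermittently from low to high for 75 s each. Target surfaces carry GDP-loaded biotinylated Avi-RAS at about 100–300 RU, regenerated after each cycle; temperature 30°C. A 1:1 binding model gives KD.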

[2] = test system: human lung cancer strain NCI-H441; assay type: cell-based
How it was run: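 Proliferation was scored by […] measured after the reagent was added to cultures kept at 37°C in 5% carbon dioxide.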

HRAS wild-type protein = HRAS wild-type protein (Homo sapiens, UniProt P01112); assay: Binding to HRAS by surface plasmon resonance (SPR), KD and KD ratio to KRAS; settings: ratio of KD for HRAS wild-type protein to KD for KRAS
HRAS wild-type protein, sequence (P01112 whole entry): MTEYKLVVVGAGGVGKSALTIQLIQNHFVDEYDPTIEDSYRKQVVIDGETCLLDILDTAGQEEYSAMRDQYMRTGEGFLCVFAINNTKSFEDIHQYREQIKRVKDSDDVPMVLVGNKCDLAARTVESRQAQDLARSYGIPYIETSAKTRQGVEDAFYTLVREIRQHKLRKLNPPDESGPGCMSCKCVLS
How it was run: as §1

GDP-bound NRAS wild-type protein, sequence (P01111 whole entry): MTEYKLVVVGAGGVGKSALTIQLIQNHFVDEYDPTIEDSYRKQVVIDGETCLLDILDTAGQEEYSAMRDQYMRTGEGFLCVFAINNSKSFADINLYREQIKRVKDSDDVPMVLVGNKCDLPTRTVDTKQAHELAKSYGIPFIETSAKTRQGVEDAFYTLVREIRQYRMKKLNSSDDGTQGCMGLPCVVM

## CCO[C@@H]1C[C@H]2C(=O)NC3(CCC3)C(=O)N(C)[C@@H](C3CCCC3)C(=O)N(C)[C@H](C(=O)N(C)C)CC(=O)N(C)[C@@H](CC)C(=O)N[C@@H]([C@@H](C)CC)C(=O)N(C)CC(=O)N(C)[C@H]3CCCCCN(C3=O)[C@@H](Cc3ccc(F)cc3C)C(=O)N(C)CC(=O)N[C@@H](CCc3cc(F)c(C(F)(F)F)c(F)c3)C(=O)N2C1 [PP0911]
[1]
  NRAS /KRAS: B (a compound having 3 or more and less than 10 is denoted as B)
[2]
  IC50: 0.0102 µM
HRAS wild-type protein
  HRAS /KRAS: B (a compound having 3 or more and less than 10 is denoted as B)

## CCO[C@@H]1C[C@H]2C(=O)NC3(CCC3)C(=O)N(C)[C@@H](C3CCCC3)C(=O)N(C)[C@H](C(=O)N(C)C)CC(=O)N(C)[C@@H](CC)C(=O)N[C@@H]([C@@H](C)CC)C(=O)N(C)CC(=O)N(C)[C@H]3CCCCCN(C3=O)[C@@H](Cc3ccc(F)cc3OC)C(=O)N(C)CC(=O)N[C@@H](CCc3cc(F)c(C(F)(F)F)c(F)c3)C(=O)N2C1 [PP0914]
[1]
  NRAS /KRAS: B (a compound having 3 or more and less than 10 is denoted as B)
[2]
  IC50: 0.0402 µM
HRAS wild-type protein
  HRAS /KRAS: B (a compound having 3 or more and less than 10 is denoted as B)

## CCO[C@@H]1C[C@H]2C(=O)NC3(CCC3)C(=O)N(C)[C@@H](C3CCCC3)C(=O)N(C)[C@H](C(=O)N(C)C)CC(=O)N(C)[C@@H](CC)C(=O)N[C@@H]([C@@H](C)CC)C(=O)N(C)CC(=O)N(C)[C@H]3CCCCCN(C3=O)[C@@H](Cc3ccc(F)c(OC)c3)C(=O)N(C)CC(=O)N[C@@H](CCc3cc(F)c(C(F)(F)F)c(F)c3)C(=O)N2C1 [PP0915]
[1]
  NRAS /KRAS: B (a compound having 3 or more and less than 10 is denoted as B)
[2]
  IC50: 0.0376 µM
HRAS wild-type protein
  HRAS /KRAS: B (a compound having 3 or more and less than 10 is denoted as B)

## CCO[C@@H]1C[C@H]2C(=O)NC3(CCC3)C(=O)N(C)[C@@H](C3CCCC3)C(=O)N(C)[C@H](C(=O)N3CCOCC3)CC(=O)N(C)[C@@H](CC(C)C)C(=O)N[C@@H]([C@@H](C)CC)C(=O)N(C)CC(=O)N(C)[C@H]3CCCCCN(C3=O)[C@@H](Cc3ccc(F)cc3Cl)C(=O)N(C)CC(=O)N[C@@H](CCc3cc(F)c(C(F)(F)F)c(F)c3)C(=O)N2C1 [PP0918]
[1]
  NRAS /KRAS: B (a compound having 3 or more and less than 10 is denoted as B)
[2]
  IC50: 0.0277 µM
HRAS wild-type protein
  HRAS /KRAS: B (a compound having 3 or more and less than 10 is denoted as B)

## CCO[C@@H]1C[C@H]2C(=O)NC3(CCC3)C(=O)N(C)[C@@H](C3CCCC3)C(=O)N(C)[C@H](C(=O)N3CCOCC3)CC(=O)N(C)[C@@H](CC(C)C)C(=O)N[C@@H]([C@@H](C)CC)C(=O)N(C)CC(=O)N(C)[C@H]3CCCCCN(C3=O)[C@@H](Cc3ccc(F)c(Cl)c3)C(=O)N(C)CC(=O)N[C@@H](CCc3cc(F)c(C(F)(F)F)c(F)c3)C(=O)N2C1 [PP0919]
[1]
  NRAS /KRAS: B (a compound having 3 or more and less than 10 is denoted as B)
[2]
  IC50: 0.11 µM
HRAS wild-type protein
  HRAS /KRAS: B (a compound having 3 or more and less than 10 is denoted as B)

## CCO[C@@H]1C[C@H]2C(=O)NC3(CCC3)C(=O)N(C)[C@@H](C3CCCC3)C(=O)N(C)[C@H](C(=O)N3CCOCC3)CC(=O)N(C)[C@@H](CC(C)C)C(=O)N[C@@H]([C@@H](C)CC)C(=O)N(C)CC(=O)N(C)[C@H]3CCCCCN(C3=O)[C@@H](Cc3ccc4sccc4c3)C(=O)N(C)CC(=O)N[C@@H](CCc3cc(F)c(C(F)(F)F)c(F)c3)C(=O)N2C1 [PP0920]
[1]
  NRAS /KRAS: B (a compound having 3 or more and less than 10 is denoted as B)
[2]
  IC50: 0.0755 µM
HRAS wild-type protein
  HRAS /KRAS: B (a compound having 3 or more and less than 10 is denoted as B)

## CCO[C@@H]1C[C@H]2C(=O)NC3(CCC3)C(=O)N(C)[C@@H](C3CCCC3)C(=O)N(C)[C@H](C(=O)N3CCOCC3)CC(=O)N(C)[C@@H](CC(C)C)C(=O)N[C@@H]([C@@H](C)CC)C(=O)N(C)CC(=O)N(C)[C@H]3CCCCCN(C3=O)[C@@H](Cc3ccc4ccsc4c3)C(=O)N(C)CC(=O)N[C@@H](CCc3cc(F)c(C(F)(F)F)c(F)c3)C(=O)N2C1 [PP0921]
[1]
  NRAS /KRAS: B (a compound having 3 or more and less than 10 is denoted as B)
[2]
  IC50: 0.139 µM
HRAS wild-type protein
  HRAS /KRAS: B (a compound having 3 or more and less than 10 is denoted as B)

## CCO[C@@H]1C[C@H]2C(=O)NC3(CCC3)C(=O)N(C)[C@@H](C3CCCC3)C(=O)N(C)[C@H](C(=O)N3CCOCC3)CC(=O)N(C)[C@@H](CC(C)C)C(=O)N[C@@H]([C@@H](C)CC)C(=O)N(C)CC(=O)N(C)[C@H]3CCCCCN(C3=O)[C@@H](Cc3ccc(F)c(C)c3)C(=O)N(C)CC(=O)N[C@@H](CCc3cc(F)c(C(F)(F)F)c(F)c3)C(=O)N2C1 [PP0922]
[1]
  NRAS /KRAS: B (a compound having 3 or more and less than 10 is denoted as B)
[2]
  IC50: 0.0982 µM
HRAS wild-type protein
  HRAS /KRAS: B (a compound having 3 or more and less than 10 is denoted as B)

## CCO[C@@H]1C[C@H]2C(=O)NC3(CCC3)C(=O)N(C)[C@@H](C3CCCC3)C(=O)N(C)[C@H](C(=O)N3CCOCC3)CC(=O)N(C)[C@@H](CC(C)C)C(=O)N[C@@H]([C@@H](C)CC)C(=O)N(C)CC(=O)N(C)[C@H]3CCCCCN(C3=O)[C@@H](Cc3ccc(F)cc3OC)C(=O)N(C)CC(=O)N[C@@H](CCc3cc(F)c(C(F)(F)F)c(F)c3)C(=O)N2C1 [PP0924]
[1]
  NRAS /KRAS: B (a compound having 3 or more and less than 10 is denoted as B)
[2]
  IC50: 0.092 µM
HRAS wild-type protein
  HRAS /KRAS: B (a compound having 3 or more and less than 10 is denoted as B)

## CCCN1C(=O)CN(C)C(=O)CN(C)C(=O)[C@H]([C@@H](C)CC)NC(=O)[C@@H]2CCCCCCC[C@@H](NC(=O)[C@@H]3C[C@@H](OCC)CN3C(=O)[C@H](CCc3cc(F)c(C(F)(F)F)c(F)c3)NC(=O)CN(C)C(=O)[C@@H]1Cc1ccc(C(F)(F)F)cc1)C(=O)N(C)[C@@H](C1CCCC1)C(=O)N(C)[C@H](C(=O)N(C)C)CC(=O)N2C [PP0925]
[1]
  NRAS /KRAS: A (a compound having 10 or more and less than 20 is denoted as A)
[2]
  IC50: 0.091 µM
HRAS wild-type protein
  HRAS /KRAS: B (a compound having 3 or more and less than 10 is denoted as B)

## CCO[C@@H]1C[C@H]2C(=O)NC3(CCC3)C(=O)N(C)[C@@H](C3CCCC3)C(=O)N(C)[C@H](C(=O)N3CCOCC3)CC(=O)N(C)[C@@H](Cc3ccccc3F)C(=O)N[C@@H]([C@@H](C)CC)C(=O)N(C)CC(=O)N(C)[C@H]3CCCCCN(C3=O)[C@@H](Cc3ccc(C(F)(F)F)cc3)C(=O)N(C)CC(=O)N[C@@H](CCc3cc(F)c(C(F)(F)F)c(F)c3)C(=O)N2C1 [PP0926]
[1]
  NRAS /KRAS: B (a compound having 3 or more and less than 10 is denoted as B)
[2]
  IC50: 0.113 µM
HRAS wild-type protein
  HRAS /KRAS: B (a compound having 3 or more and less than 10 is denoted as B)

## CCO[C@@H]1C[C@H]2C(=O)NC3(CCC3)C(=O)N(C)[C@@H](C3CCCC3)C(=O)N(C)[C@H](C(=O)N3CCOCC3)CC(=O)N(C)[C@@H](Cc3ccc(F)c(F)c3)C(=O)N[C@@H]([C@@H](C)CC)C(=O)N(C)CC(=O)N(C)[C@H]3CCCCCN(C3=O)[C@@H](Cc3ccc(C(F)(F)F)cc3)C(=O)N(C)CC(=O)N[C@@H](CCc3cc(F)c(C(F)(F)F)c(F)c3)C(=O)N2C1 [PP0928]
[1]
  NRAS /KRAS: A (a compound having 10 or more and less than 20 is denoted as A)
[2]
  IC50: 0.182 µM
HRAS wild-type protein
  HRAS /KRAS: B (a compound having 3 or more and less than 10 is denoted as B)

## CCO[C@@H]1C[C@H]2C(=O)NC3(CCC3)C(=O)N(C)[C@@H](C3CCCC3)C(=O)N(C)[C@H](C(=O)N3CCOCC3)CC(=O)N(C)[C@@H](Cc3ccccc3Cl)C(=O)N[C@@H]([C@@H](C)CC)C(=O)N(C)CC(=O)N(C)[C@H]3CCCCCN(C3=O)[C@@H](Cc3ccc(C(F)(F)F)cc3)C(=O)N(C)CC(=O)N[C@@H](CCc3cc(F)c(C(F)(F)F)c(F)c3)C(=O)N2C1 [PP0929]
[1]
  NRAS /KRAS: A (a compound having 10 or more and less than 20 is denoted as A)
[2]
  IC50: 0.317 µM
HRAS wild-type protein
  HRAS /KRAS: B (a compound having 3 or more and less than 10 is denoted as B)

## CCO[C@@H]1C[C@H]2C(=O)NC3(CCC3)C(=O)N(C)[C@@H](C3CCCC3)C(=O)N(C)[C@H](C(=O)N3CCOCC3)CC(=O)N(C)[C@@H](Cc3ccccc3C)C(=O)N[C@@H]([C@@H](C)CC)C(=O)N(C)CC(=O)N(C)[C@H]3CCCCCN(C3=O)[C@@H](Cc3ccc(C(F)(F)F)cc3)C(=O)N(C)CC(=O)N[C@@H](CCc3cc(F)c(C(F)(F)F)c(F)c3)C(=O)N2C1 [PP0931]
[1]
  NRAS /KRAS: A (a compound having 10 or more and less than 20 is denoted as A)
[2]
  IC50: 0.181 µM
HRAS wild-type protein
  HRAS /KRAS: B (a compound having 3 or more and less than 10 is denoted as B)

## CCO[C@@H]1C[C@H]2C(=O)NC3(CCC3)C(=O)N(C)[C@@H](C3CCCC3)C(=O)N(C)[C@H](C(=O)N3CCOCC3)CC(=O)N(C)[C@@H](Cc3ccc(C)cc3)C(=O)N[C@@H]([C@@H](C)CC)C(=O)N(C)CC(=O)N(C)[C@H]3CCCCCN(C3=O)[C@@H](Cc3ccc(C(F)(F)F)cc3)C(=O)N(C)CC(=O)N[C@@H](CCc3cc(F)c(C(F)(F)F)c(F)c3)C(=O)N2C1 [PP0933]
[1]
  NRAS /KRAS: A (a compound having 10 or more and less than 20 is denoted as A)
[2]
  IC50: 0.15 µM
HRAS wild-type protein
  HRAS /KRAS: B (a compound having 3 or more and less than 10 is denoted as B)
